Experimental findings from patent US6583309B1 (University of Medicine and Dentistry of New Jersey, priority 1999, dated 2003) are described below.

This assay concerns the target TAR RNA. Kind of assay: In vitro binding of resin-bound compounds to TAR RNA (OD260 of unbound RNA). Also noted: species or system HIV. The settings on record: in vitro assay; compounds of formula I on TentaGel beads incubated with TAR RNA overnight at 4° C. in TK buffer; read-out: Kd (nM), binding constants. As for the experimental part: Binding of compounds of formula I and V to TAR RNA was measured by evaluating their inhibition of TAR-TAT complex formation in the presence of increasing levels of the compound to be tested. The compounds of formula I were tested in an in vitro assay; the compounds of formula V were tested in an in vivo assay.
The TAR RNA used corresponds to the minimal sequence required for TAT responsiveness in vivo. This 29-residue oligonucleotide has the sequence: 5′-[…]-3′ (SEQ ID NO.: 1). TAR RNA was prepared by in vitro transcription. A “top strand” single-stranded DNA oligomer having the sequence 5′-TAATACGACTCACTATAG-3′ (SEQ ID NO.: 2) was annealed to a “bottom strand” single-stranded DNA template having the following sequence: 3′-[…]-5′ (SEQ ID NO.: 3), thereby generating a double-stranded region corresponding to a promoter sequence recognized by T7 RNA polymerase. Transcription was carried out in transcription buffer (40 mM Tris-HCl, pH 8.1, 1 mM spermidine, 0.01% Triton®X-100, 5 mM dithiothreitol, 4 mM each of ATP, GTP, CTP, and UTP at 37° C. for 4 to 5 hours. Reactions were performed in a volume of 0.02 ml containing 8 pmole of template (top strand annealed to bottom strand) and 40 to 60 units of T7 RNA polymerase. Transcription was terminated by adding an equal volume of loading buffer (9M urea, 1 mmol EDTA, 0.1M bromophenol blue in 1XTBE buffer; TBE is 45 mmol trisborate at pH 8). Product RNA was purified by electrophoresis through a denaturing 20% polyacrylamide gel containing 8M urea. RNA was extracted from the gel, precipitated, dissolved in dithylpyrocarbonate-treated water, and stored at −20° C. until used.
In vitro assay conditions: Compounds AA-DU were synthesized on TentaGel S—NH2 (4.6 mmole). All Fmoc-amino acids were purchased from Bachem (Torrance, Calif.). 1-hydroxybenzotriazole (HOBT) and diisopropylcarbodiimide (DIPCDI) were obtained from Aldrich Chemical Co., Milwalkee, Wis. Piperidine and trifluoroacetic acid were purchased from Applied Biosystems Division, Perkin-Elmer. Compounds AA-DU were synthesized manually according to standard solid-phase peptide synthesis protocols. Coupling efficiencies of residues at each step were monitored by Kaiser test. Deprotection of trimer peptides was carried out in 10% water in trifluoroacetic acid (1 mL) for 16 hours at room temperature. After filtration of solvents, the resin was washed with water (1 mL×4), DMF (1 mL×4), dichloromethane (1 mL×4), and dried under reduced pressure. The compounds attached to the resin (10 beads) were placed in an Eppendorf tube and washed with TK buffer ([…]). The beads were suspended in TK buffer ([…]) and incubated with TAR RNA ([…]) overnight at 4° C. The suspension was centrifuged and the supernatant containing unbound RNA was transferred to a cuvette for OD260 measurements. The UV absorbance was measured by a Shimadzu UV-1601 spectrometer. Equilibrium concentrations of RNA were determined from these measurements. Given that the initial concentrations of ligand and RNA are known, and assuming simple bimolecular receptor/substrate binding, dissociation constant (KD) was calculated from straightforward equations.

SMILES strings stand for the structures.

For orientation: Kd means the equilibrium constant for the complex coming apart. `NCCCCCCCN(CC(=O)N[C@H](CCCCN)COC(N)=O)C(=O)CNCCCCCN` [Compound BO, Carbamic acid 6-amino-2-(2-{(7-amino-heptyl)-[2-(5-amino-pentylamino)-acetyl]-amino}-acetylamino)-hexyl ester]: the Kd came to 183 nM. As for `NCCCCCCCNCC(=O)N(CCCCN)CC(=O)N[C@H](CCCCN)COC(N)=O` [Compound AX, Carbamic acid 6-amino-2-(2-{(4-amino-butyl)-[2-(7-amino-heptylamino)-acetyl]-amino}-acetylamino)-hexyl ester], the Kd was 165 nM. `NCCCCCN(CC(=O)N[C@H](CCCCN)COC(N)=O)C(=O)CNCCCCN` [Compound BH, Carbamic acid 6-amino-2-{2-[[2-(4-amino-butylamino)-acetyl]-(5-amino-pentyl)-amino]-acetylamino}-hexyl ester]: the Kd was 2530 nM. As to `N=C(N)NCCC[C@H](N)COC(=O)N[C@@H](CCCCN)C(=O)N[C@H](CCCCN)COC(N)=O` [Compound DT, Carbamic acid 6-amino-2-[6-amino-2-(2-amino-5-guanidino-pentyloxycarbonylamino)-hexanoylamino]-hexyl ester], the Kd worked out at 215 nM.

For `NCCCC[C@H](COC(N)=O)NC(=O)OC[C@@H](CCCCN)NC(=O)[C@@H](N)CCCCN` [Compound AC, Carbamic acid 6-amino-2-[6-amino-2-(2,6-diamino-hexanoylamino)-hexyloxycarbonylamino]-hexyl ester], the Kd was found to be 215 nM. The value for `NCCCC[C@H](N)COC(=O)N[C@@H](CCCCN)C(=O)N[C@H](CCCCN)COC(N)=O` (stereo in doubt) [Compound BT, Carbamic acid 6-amino-2-[6-amino-2-(2,6-diamino-hexyloxycarbonylamino)-hexanoylamino]-hexyl ester] was 202 nM.

In the case of `NCCCCCCCNCC(=O)N[C@@H](CCCCN)C(=O)N[C@H](CCCCN)COC(N)=O` [Compound BY, Carbamic acid 6-amino-2-{6-amino-2-[2-(7-amino-heptylamino)-acetylamino]-hexanoylamino}-hexyl ester], the Kd was determined as 183 nM.

Turning to `N=C(N)NCCC[C@H](N)COC(=O)N(CCCCCCCN)CC(=O)N[C@@H](CCCCN)COC(N)=O` [Compound DR], the Kd was 460 nM.

`NCCCCCNCC(=O)N(CCCCN)CC(=O)N[C@@H](CCCCN)COC(N)=O` [Compound CW]: the Kd was found to be 3980 nM. `NCCCC[C@@H](N)COC(=O)N[C@H](CCCCN)COC(=O)N[C@H](CCCCN)COC(N)=O` [Compound AB, Carbamic acid 6-amino-2-[6-amino-2-(2,6-diamino-hexyloxycarbonylamino)-hexyloxycarbonylamino]-hexyl ester]: the Kd is 523 nM. The value for `NCCCCCCCNCC(=O)N[C@@H](CCCCN)COC(=O)N[C@H](CCCCN)COC(N)=O` [Compound AO, Carbamic acid 6-amino-2-{6-amino-2-[2-(7-amino-heptylamino)-acetylamino]-hexyloxycarbonylamino}-hexyl ester] was 120 nM. For `NCCCCNCC(=O)N[C@@H](CCCCN)COC(=O)N[C@@H](CCCCN)COC(N)=O` [Compound CP, Carbamic acid 6-amino-2-{6-amino-2-[2-(4-amino-butylamino)-acetylamino]-hexyloxycarbonylamino}-hexyl ester], the Kd is 678 nM. For the compound `NCCCCCNCC(=O)N(CCCCCN)CC(=O)N[C@@H](CCCCN)COC(N)=O` [Compound DF, Carbamic acid 6-amino-2-(2-{(5-amino-pentyl)-[2-(5-amino-pentylamino)-acetyl]-amino}-acetylamino)-hexyl ester], the Kd turned out to be 31400 nM. In the case of `NCCCC[C@H](COC(N)=O)NC(=O)OC[C@H](CCCCN)NC(=O)[C@H](N)CCCCN` (stereo in doubt) [Compound AM, Carbamic acid 6-amino-2-[6-amino-2-(2,6-diamino-hexanoylamino)-hexyloxycarbonylamino]-hexyl ester], the Kd came to 183 nM. The value for `NCCCCCN(CC(=O)N[C@H](CCCCN)COC(N)=O)C(=O)[C@H](N)CCCCN` [Compound BE, Carbamic acid 6-amino-2-{2-[(5-amino-pentyl)-(2,6-diamino-hexanoyl)-amino]-acetylamino}-hexyl ester] was 678 nM; that for `NCCCCCNCC(=O)N[C@H](CCCCN)COC(=O)N[C@@H](CCCCN)COC(N)=O` [Compound CE, Carbamic acid 6-amino-2-{6-amino-2-[2-(5-amino-pentylamino)-acetylamino]-hexyloxycarbonylamino}-hexyl ester] was 301 nM.

With `NCCCCCN(CC(=O)N[C@@H](CCCCN)COC(N)=O)C(=O)OC[C@@H](N)CCCCN` [Compound DB, Carbamic acid 6-amino-2-{2-[(5-amino-pentyl)-(2,6-diamino-hexyloxycarbonyl)-amino]-acetylamino}-hexyl ester], the Kd amounted to 256 nM. The value for `NCCCCCCCNCC(=O)N(CCCCCCCN)CC(=O)N[C@@H](CCCCN)COC(N)=O` [Compound DP, Carbamic acid 6-amino-2-(2-{(7-amino-heptyl)-[2-(7-amino-heptylamino)-acetyl]-amino}-acetylamino)-hexyl ester] was 774 nM; that for `NCCCC[C@@H](COC(N)=O)NC(=O)CN(CCCCN)C(=O)[C@@H](N)CCCCN` [Compound CU, Carbamic acid 6-amino-2-{2-[(4-amino-butyl)-(2,6-diamino-hexanoyl)-amino]-acetylamino}-hexyl ester] was 718 nM. Take `NCCCCCCCN(CC(=O)N[C@@H](CCCCN)COC(N)=O)C(=O)OC[C@H](N)CCCCN` [Compound DL, Carbamic acid 6-amino-2-{2-[(7-amino-heptyl)-(2,6-diamino-hexyloxycarbonyl)-amino]-acetylamino}-hexyl ester]: the Kd worked out at 678 nM. With `NCCCCCCCNCC(=O)N(CCCCCN)CC(=O)N[C@@H](CCCCN)COC(N)=O` [Compound DG, Carbamic acid 6-amino-2-{2-[[2-(7-amino-heptylamino)-acetyl]-(5-amino-pentyl)-amino]-acetylamino}-hexyl ester], the Kd came to 235 nM. As for `NCCCCNCC(=O)N(CCCCN)CC(=O)N[C@@H](CCCCN)COC(N)=O` [Compound CY, Carbamic acid 6-amino-2-(2-{(4-amino-butyl)-[2-(4-amino-butylamino)-acetyl]-amino}-acetylamino)-hexyl ester], the figure is 523 nM; as for `NCCCCCCCNCC(=O)N[C@H](CCCCN)COC(=O)N[C@H](CCCCN)COC(N)=O` [Compound AF, Carbamic acid 6-amino-2-{6-amino-2-[2-(7-amino-heptylamino)-acetylamino]-hexyloxycarbonylamino}-hexyl ester], 491 nM.

For `N=C(N)NCCC[C@H](N)COC(=O)N[C@H](CCCCN)COC(=O)N[C@H](CCCCN)COC(N)=O` [Compound AH, Carbamic acid 6-amino-2-[6-amino-2-(2-amino-5-guanidino-pentyloxycarbonylamino)-hexyloxycarbonylamino]-hexyl ester], the Kd was 460 nM.

Consider `NCCCCCCCN(CC(=O)N[C@@H](CCCCN)COC(N)=O)C(=O)[C@@H](N)CCCCN` [Compound DM, Carbamic acid 6-amino-2-{2-[(7-amino-heptyl)-(2,6-diamino-hexanoyl)-amino]-acetylamino}-hexyl ester], for which the Kd amounted to 256 nM.
